In ChEMBL document CHEMBL4765389, “Antimicrobial and anti-inflammatory activities of short dodecapeptides derived from duck cathelicidin: Plausible mechanism of bactericidal action and endotoxin neutralization” (Eur J Med Chem, 2020):
The source made the active and inactive calls. The calls are words filed in the database; no cut-off is given here.

What was measured:
[1] = Cytotoxicity against mouse NIH/3T3 cells assessed as reduction in cell viability at 20 uM incubated for 24 hrs by MTT assay; format: cell-based, NIH3T3; details: NIH/3T3 cells, read-out: INH
[2] = test system: Staphylococcus epidermidis; assay: Antibacterial activity against Staphylococcus epidermidis KCTC 1917 assessed as reduction in bacterial growth incubated for 24 hrs by CLSI based broth dilution method; format: functional; details: read-out: MIC100
Bacillus subtilis = assay: Antibacterial activity against Bacillus subtilis KCTC 3068 assessed as reduction in bacterial growth incubated for 24 hrs by CLSI based broth dilution method; format: functional; details: read-out: MIC100
Staphylococcus aureus [3] = assay: Antibacterial activity against methicillin-resistant Staphylococcus aureus CCARM 3090 assessed as reduction in bacterial growth incubated for 24 hrs by CLSI based broth dilution method; format: functional; details: read-out: MIC100
Staphylococcus aureus [4] = assay: Antibacterial activity against methicillin-resistant Staphylococcus aureus CCARM 3095 assessed as reduction in bacterial growth incubated for 24 hrs by CLSI based broth dilution method; format: functional; details: read-out: MIC100
Escherichia coli [5] = assay: Antibacterial activity against Escherichia coli KCTC 1682 assessed as reduction in bacterial growth incubated for 24 hrs by CLSI based broth dilution method; format: functional; details: read-out: MIC100
Salmonella typhimurium = assay: Antibacterial activity against Salmonella typhimurium KCTC 1926 assessed as reduction in bacterial growth incubated for 24 hrs by CLSI based broth dilution method; format: functional, Salmonella enterica subsp. enterica serovar Typhimurium; details: Salmonella enterica, read-out: MIC100
[6] = Antibacterial activity against multidrug-resistant Pseudomonas aeruginosa CCARM 2095 assessed as reduction in bacterial growth incubated for 24 hrs by CLSI based broth dilution method; format: functional; details: read-out: MIC100
[7] = Antibacterial activity against multidrug-resistant Pseudomonas aeruginosa CCARM 2109 assessed as reduction in bacterial growth incubated for 24 hrs by CLSI based broth dilution method; format: functional; details: read-out: MIC100
Candida albicans = assay: Antifungal activity against Candida albicans KCTC 7965 assessed as reduction in fungal growth incubated for 24 hrs by CLSI based broth dilution method; format: functional; details: read-out: MIC100
Erythrocyte = assay: Hemolytic activity in sheep RBC assessed as reduction in hemoglobin incubated for 1 hr; format: ADME, cell-based, Ovis aries
Saccharomyces cerevisiae = assay: Antifungal activity against yeast assessed as reduction in fungal growth incubated for 24 hrs by CLSI based broth dilution method; format: functional; details: read-out: MIC100
[8] = Therapeutic index, ratio of HC10 for sheep RBC to geometric mean MIC for yeast; format: toxicity; details: sheep red blood cells, read-out: TI
RAW264.7 [9] = assay: Antiinflammatory activity against mouse RAW264.7 cells assessed as reduction in LPS-induced TNFalpha level at 10 uM incubated for 24 hrs by […] relative to control; format: functional
Escherichia coli [10] = assay: Antibacterial activity against Escherichia coli KCTC 1682 assessed as reduction in bacterial growth incubated for 24 hrs in presence of 150 mM NaCl by CLSI based broth dilution method; format: functional; details: read-out: MIC100
Escherichia coli [11] = assay: Antibacterial activity against Escherichia coli KCTC 1682 assessed as reduction in bacterial growth incubated for 24 hrs in presence of 6 uM NH4Cl by CLSI based broth dilution method; format: functional; details: read-out: MIC100
Escherichia coli [12] = assay: Antibacterial activity against Escherichia coli KCTC 1682 assessed as reduction in bacterial growth incubated for 24 hrs in presence of 1 mM MgCl2 by CLSI based broth dilution method; format: functional; details: read-out: MIC100
Escherichia coli [13] = assay: Antibacterial activity against Escherichia coli KCTC 1682 assessed as reduction in bacterial growth incubated for 24 hrs in presence of 2.5 mM CaCl2 by CLSI based broth dilution method; format: functional; details: read-out: MIC100
Staphylococcus aureus [14] = assay: Antibacterial activity against Staphylococcus aureus KCTC 1621 assessed as reduction in bacterial growth incubated for 24 hrs in presence of 150 mM NaCl by CLSI based broth dilution method; format: functional; details: read-out: MIC100
Staphylococcus aureus [15] = assay: Antibacterial activity against Staphylococcus aureus KCTC 1621 assessed as reduction in bacterial growth incubated for 24 hrs in presence of 4.5 mM KCl by CLSI based broth dilution method; format: functional; details: read-out: MIC100
Staphylococcus aureus [16] = assay: Antibacterial activity against Staphylococcus aureus KCTC 1621 assessed as reduction in bacterial growth incubated for 24 hrs in presence of 2.5 mM CaCl2 by CLSI based broth dilution method; format: functional; details: read-out: MIC100
Staphylococcus aureus [17] = assay: Antibacterial activity against Staphylococcus aureus KCTC 1621 assessed as reduction in bacterial growth incubated for 24 hrs in presence of 20 % serum by CLSI based broth dilution method; format: functional; details: read-out: MIC100
Staphylococcus aureus [18] = assay: Antibacterial activity against methicillin-resistant Staphylococcus aureus CCARM 3090 assessed as fractional inhibitory concentration index incubated for 24 hrs in presence of chloramphenicol by CLSI based broth dilution method; format: functional
[19] = Antibacterial activity against multidrug-resistant Pseudomonas aeruginosa CCARM 2095 assessed as reduction in bacterial growth incubated for 24 hrs in presence of chloramphenicol by CLSI based broth dilution method; format: functional; details: read-out: MIC100
[20] = Antibacterial activity against multidrug-resistant Pseudomonas aeruginosa CCARM 2095 assessed as reduction in bacterial growth incubated for 24 hrs in presence of oxacillin by CLSI based broth dilution method; format: functional; details: read-out: MIC100
[21] = Antibacterial activity against multidrug-resistant Pseudomonas aeruginosa CCARM 2095 assessed as fractional inhibitory concentration incubated for 24 hrs in presence of chloramphenicol by CLSI based broth dilution method; format: functional
[22] = Antibacterial activity against multidrug-resistant Pseudomonas aeruginosa CCARM 2095 assessed as fractional inhibitory concentration incubated for 24 hrs in presence of oxacillin by CLSI based broth dilution method; format: functional
[23] = Antibacterial activity against multidrug-resistant Pseudomonas aeruginosa CCARM 2095 assessed as fractional inhibitory concentration index incubated for 24 hrs in presence of ciprofloxacin by CLSI based broth dilution method; format: functional
Escherichia coli [24] = assay: Bactericidal activity against Escherichia coli KCTC 1682 assessed as reduction in colony forming unit at MIC measured at 3 hrs by time kill assay; format: functional
Cell membrane [25] = assay: Induction of cell membrane permeability in Staphylococcus aureus KCTC 1621 assessed as cytoplasmic membrane depolarization at 16 uM by DiSC3-5 dye based spectrofluorometry; format: subcellular
Cell membrane [26] = assay: Induction of cell membrane permeability in Staphylococcus aureus KCTC 1621 assessed as cytoplasmic membrane depolarization at 16 uM by SYTOX dye based fluorescence assay; format: subcellular
Cell membrane [27] = assay: Induction of cell membrane permeability in Escherichia coli KCTC 1682 assessed as […] at 16 uM by ONPG dye based spectrophotometry; format: subcellular
[28] = Drug uptake in Escherichia coli KCTC 1682 assessed as cytoplasmic accumulation at 2 times MIC incubated for 30 mins by confocal laser scanning microscopy; format: ADME; details: 0.5 h
Lipopolysaccharide (LPS) = assay: Inhibition of Escherichia coli O111:B4 LPS aggregation assessed as increase in FITC-LPS dissociation by spectrofluorometry
RAW264.7 [29] = assay: Antiinflammatory activity in mouse RAW264.7 cells assessed as suppression of LPS binding by measuring LPS-FITC aggregation at 10 uM pretreated with LPS for 1 hr followed by compound addition and measured after 30 mins by flowcytometry analysis (reference value: 67.93 %); format: functional; details: 0.5 h
RAW264.7 [30] = assay: Antiinflammatory activity in mouse RAW264.7 cells assessed as neutralization of LPS binding by measuring LPS-FITC aggregation at 10 uM pretreated with LPS for 1 hr followed by compound addition and measured after 1 hr by flowcytometry analysis (reference value: 48.12 %); format: functional
[31] = Retention time of the compound by RP-HPLC method; format: physicochemical

Substance | cytotoxicity at 24 h, 20 µM [1] [%] | MIC [2] [µM] | MIC (Bacillus subtilis) [µM] | MIC (Staphylococcus aureus [3]) [µM] | MIC (Staphylococcus aureus [4]) [µM] | MIC (Escherichia coli [5]) [µM] | MIC (Salmonella typhimurium) [µM] | MIC [6] [µM] | MIC [7] [µM] | MIC (Candida albicans) [µM] | HC10 (Erythrocyte) [µM] | MIC (Saccharomyces cerevisiae) [µM] | selectivity ratio [8] | inhibition at 10 µM (RAW264.7 [9]) [%] | MIC (Escherichia coli [10]) [µM] | MIC (Escherichia coli [11]) [µM] | MIC (Escherichia coli [12]) [µM] | MIC (Escherichia coli [13]) [µM] | MIC (Staphylococcus aureus [14]) [µM] | MIC (Staphylococcus aureus [15]) [µM] | other results
H-LIKKIYRKWKRW-NH2 | < 10 | 4 | 2 | 8 | 8 | 8 | 2 | 8 | 8 | 8 | > 256 | 6 | 853 | 47.3 | 4 | 2 | 8 | 8 | 8 | 4 | MIC (Staphylococcus aureus [16]): 4 µM; MIC (Staphylococcus aureus [17]): 4 µM; fractional inhibitory concentration index (FICI) (Staphylococcus aureus [18]): 0.5; MIC [19]: 64 µM; MIC [20]: 64 µM; FIC [21]: 0.0625; FIC [22]: 0.125; fractional inhibitory concentration index (FICI) [23]: 0.375; Activity (Escherichia coli [24]): <2 log10CFU/ml; Activity (Cell membrane [25]): inactive; Activity (Cell membrane [26]): inactive; Activity (Cell membrane [27]): inactive; Drug uptake [28]: Active; inhibition (Lipopolysaccharide (LPS)): Dose-dependent effect; Activity (RAW264.7 [29]): 32.51%; Activity (RAW264.7 [30]): 24.41%; Retention_time [31]: 16.2 min
H-LWKKIYRKWKRW-NH2 | < 10 | 4 | 2 | 8 | 8 | 4 | 2 | 8 | 4 | 8 | > 256 | 6 | 853 | 65 | 4 | 2 | 4 | 4 | 2 | 4 | MIC (Staphylococcus aureus [16]): 4 µM; MIC (Staphylococcus aureus [17]): 4 µM; fractional inhibitory concentration index (FICI) (Staphylococcus aureus [18]): 0.5; MIC [19]: 128 µM; MIC [20]: 64 µM; FIC [21]: 0.125; FIC [22]: 0.125; fractional inhibitory concentration index (FICI) [23]: 0.375; Activity (Escherichia coli [24]): <2 log10CFU/ml; Activity (Cell membrane [25]): inactive; Activity (Cell membrane [26]): inactive; Activity (Cell membrane [27]): inactive; Drug uptake [28]: Active; inhibition (Lipopolysaccharide (LPS)): Dose-dependent effect; Activity (RAW264.7 [29]): 17.64%; Activity (RAW264.7 [30]): 15.47%; Retention_time [31]: 17.3 min
